Experimental data published in ChEMBL document CHEMBL1201862, “PubChem BioAssay data set” (2004).
Activity calls are given as the source filed them.

Tests used:
[1] = Luminescence Cell-Based Dose Response HTS to Identify Inhibitors of 5'UTR Stem-Loop Driven Prion Protein mRNA Translation in H4 Neuroglioblastoma Cells. [Related pubchem assays: 1827 (Project Summary), 1813 (Primary HTS)]; assay type: functional
[2] = DRD fibroblast viability loss – cell-based, non-viral oncogenic, luminescence, dose response (AID 1934); assay type: functional; conditions: Homo sapiens
[3] = HPDE-C7 pancreatic duct cell viability loss – fluorescence, HTS (AID 430); assay type: functional, cell-based; conditions: Homo sapiens
[4] = viability of PTEN-deleted HCT116 cells – cell-based, HCT116 PTEN knockout, dose response (AID 1047); assay type: functional;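 further: HCT116 colon tumor cells with PTEN knocked out; cells exposed to compound for 60 hours before readout; potency for loss of cell viability measured by luminescence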
[5] = HIV-1 AD8 envelope cell-cell fusion blockers – cherry-pick, dose response (AID 652062); assay type: functional, cell-based;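 further: luciferase signal from cell-cell fusion driven by HIV-1 clade B AD8 Env; potency is for inhibitors of fusion seen as a drop in luminescence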
[6] = molecular target: Voltage-dependent T-type calcium channel subunit alpha-1H (Homo sapiens, UniProt O95180); assay type: functional;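 further: channel activity triggered by adding a high calcium stimulation buffer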
Voltage-dependent T-type calcium channel subunit alpha-1H, sequence (O95180 whole entry, the tested form may be a part): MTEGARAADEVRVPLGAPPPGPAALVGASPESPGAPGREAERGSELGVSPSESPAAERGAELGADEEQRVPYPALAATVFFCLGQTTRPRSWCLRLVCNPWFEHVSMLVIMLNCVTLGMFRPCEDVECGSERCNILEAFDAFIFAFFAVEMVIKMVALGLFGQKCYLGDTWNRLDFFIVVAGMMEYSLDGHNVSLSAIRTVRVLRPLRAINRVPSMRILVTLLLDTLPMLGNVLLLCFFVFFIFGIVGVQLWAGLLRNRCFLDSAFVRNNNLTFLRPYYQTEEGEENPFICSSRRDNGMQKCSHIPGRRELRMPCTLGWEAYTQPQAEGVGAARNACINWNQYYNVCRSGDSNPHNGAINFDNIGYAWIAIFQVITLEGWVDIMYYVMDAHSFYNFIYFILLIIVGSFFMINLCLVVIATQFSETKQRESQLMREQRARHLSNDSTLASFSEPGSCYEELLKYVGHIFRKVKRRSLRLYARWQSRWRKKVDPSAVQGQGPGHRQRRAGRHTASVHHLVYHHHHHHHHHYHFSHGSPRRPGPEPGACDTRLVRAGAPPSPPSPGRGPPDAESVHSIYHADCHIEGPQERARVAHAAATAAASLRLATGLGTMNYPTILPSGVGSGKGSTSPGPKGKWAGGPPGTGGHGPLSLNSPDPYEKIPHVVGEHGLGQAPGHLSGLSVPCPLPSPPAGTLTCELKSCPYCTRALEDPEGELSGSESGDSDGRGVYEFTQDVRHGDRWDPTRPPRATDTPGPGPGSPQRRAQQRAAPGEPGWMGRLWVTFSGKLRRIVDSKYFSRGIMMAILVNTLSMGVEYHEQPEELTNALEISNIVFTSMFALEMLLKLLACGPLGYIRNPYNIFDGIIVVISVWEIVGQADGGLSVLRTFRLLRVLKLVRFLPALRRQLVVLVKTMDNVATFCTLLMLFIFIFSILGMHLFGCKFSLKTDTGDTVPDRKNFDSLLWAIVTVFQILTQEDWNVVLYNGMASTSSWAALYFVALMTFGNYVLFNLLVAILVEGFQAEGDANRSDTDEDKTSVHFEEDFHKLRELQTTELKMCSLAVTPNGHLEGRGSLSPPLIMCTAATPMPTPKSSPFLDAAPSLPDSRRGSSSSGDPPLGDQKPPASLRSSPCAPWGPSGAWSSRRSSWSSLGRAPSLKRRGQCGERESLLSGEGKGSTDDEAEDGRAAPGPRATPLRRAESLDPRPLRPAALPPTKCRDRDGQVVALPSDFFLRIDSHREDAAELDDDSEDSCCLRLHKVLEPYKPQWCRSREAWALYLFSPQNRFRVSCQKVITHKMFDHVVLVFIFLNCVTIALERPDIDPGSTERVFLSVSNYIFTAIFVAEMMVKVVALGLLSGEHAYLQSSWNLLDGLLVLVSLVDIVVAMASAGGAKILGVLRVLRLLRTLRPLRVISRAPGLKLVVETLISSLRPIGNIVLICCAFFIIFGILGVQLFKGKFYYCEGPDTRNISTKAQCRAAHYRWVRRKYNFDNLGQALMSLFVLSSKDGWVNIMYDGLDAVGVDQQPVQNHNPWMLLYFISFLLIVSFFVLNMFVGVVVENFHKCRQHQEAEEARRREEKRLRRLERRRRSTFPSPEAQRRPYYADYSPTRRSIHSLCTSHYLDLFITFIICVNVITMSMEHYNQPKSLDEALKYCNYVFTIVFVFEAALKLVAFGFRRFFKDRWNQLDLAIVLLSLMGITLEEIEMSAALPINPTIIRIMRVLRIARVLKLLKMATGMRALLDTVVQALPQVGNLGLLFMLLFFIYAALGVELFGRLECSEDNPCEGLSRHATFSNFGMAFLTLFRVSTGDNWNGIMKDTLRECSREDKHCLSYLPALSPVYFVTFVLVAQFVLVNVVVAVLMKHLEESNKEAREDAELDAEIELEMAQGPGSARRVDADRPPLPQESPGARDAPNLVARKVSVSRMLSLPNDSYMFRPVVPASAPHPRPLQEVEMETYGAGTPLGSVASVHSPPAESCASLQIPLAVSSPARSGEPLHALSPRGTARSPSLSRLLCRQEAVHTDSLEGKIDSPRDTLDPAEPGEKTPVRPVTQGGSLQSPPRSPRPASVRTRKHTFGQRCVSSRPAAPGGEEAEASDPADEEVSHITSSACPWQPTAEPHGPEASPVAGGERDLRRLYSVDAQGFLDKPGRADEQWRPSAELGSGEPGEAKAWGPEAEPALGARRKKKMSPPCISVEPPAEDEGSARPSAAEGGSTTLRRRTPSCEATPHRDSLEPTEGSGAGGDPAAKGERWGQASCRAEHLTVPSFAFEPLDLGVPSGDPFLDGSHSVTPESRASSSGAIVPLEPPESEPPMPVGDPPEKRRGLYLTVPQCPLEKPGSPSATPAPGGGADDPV

[7] = blockers of HIV-1 ZM109 envelope-driven cell-cell fusion – HeLa effector, CEM target cells, luciferase, cherry-pick, dose response (AID 652058); assay type: functional, cell-based;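 further: luciferase signal from HIV-1 Env mediated cell-cell fusion of effector and target cells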
[8] = off-target signal loss in HeLa-CEM21 co-culture – HeLa F-luc CTL cells, cherry-picked, counter-screen for HIV-1 Env fusion inhibitor project, dose response (AID 652040); assay type: functional, cell-based;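 further: potency for signal decrease marking cytotoxic or nonspecific inhibition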
BJ [9] = assay: cells; assay type: functional, cell-based; conditions: Homo sapiens
[10] = luciferase reporter signal suppression in cells – H4 neuroglioma cells, luminescence, dose response (AID 1990); assay type: functional, cell-based
Paired box protein Pax-8 = Paired box protein Pax-8 (Homo sapiens, UniProt Q06710); assay: PAX8 transcriptional activity inhibition in RMG-I – RMG-I cells, luciferase, cherry-pick, dose response (AID 687027); assay type: functional, cell-based;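 further: luciferase reporter driven by Pax8 target thyroperoxidase promoter measured by SteadyGlo luminescence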
Paired box protein Pax-8, sequence (Q06710 whole entry): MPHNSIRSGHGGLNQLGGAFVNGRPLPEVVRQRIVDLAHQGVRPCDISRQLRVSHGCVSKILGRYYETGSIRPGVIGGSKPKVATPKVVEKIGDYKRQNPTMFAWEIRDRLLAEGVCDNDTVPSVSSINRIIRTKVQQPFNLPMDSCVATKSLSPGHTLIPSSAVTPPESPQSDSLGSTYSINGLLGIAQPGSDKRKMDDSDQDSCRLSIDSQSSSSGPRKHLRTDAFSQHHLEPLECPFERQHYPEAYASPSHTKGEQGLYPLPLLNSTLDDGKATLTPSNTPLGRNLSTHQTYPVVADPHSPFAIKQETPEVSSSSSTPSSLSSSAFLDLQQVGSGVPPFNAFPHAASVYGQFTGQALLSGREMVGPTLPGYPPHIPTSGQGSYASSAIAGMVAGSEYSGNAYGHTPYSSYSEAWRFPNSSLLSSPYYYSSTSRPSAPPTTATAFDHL

HEK293 = assay: EBV LMP1 TES2 canonical NF-kB signalling blockers – cell-based, HEK293, luciferase, cherry-pick, dose response (AID 588343); assay type: functional; conditions: Homo sapiens
[11] = alpha-synuclein stem-loop luciferase translation blockers – H4 neuroglioma cells, luminescence, confirmation (AID 1988); assay type: functional, cell-based
[12] = molecular target: T1, Heat shock factor protein 1 (Mus musculus, UniProt P38532); assay: decrease of HSF1-responsive luciferase luminescence – cell-based, NIH3T3, dose retest, confirmation (AID 2382); assay type: functional;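 further: NIH3T3 fibroblasts with HSF1-driven luciferase reporter stressed by proteasome inhibitor MG132; luminescence from HSF1-driven luciferase expression after 8 hours of MG132 stress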
T1 sequence (P38532 whole entry): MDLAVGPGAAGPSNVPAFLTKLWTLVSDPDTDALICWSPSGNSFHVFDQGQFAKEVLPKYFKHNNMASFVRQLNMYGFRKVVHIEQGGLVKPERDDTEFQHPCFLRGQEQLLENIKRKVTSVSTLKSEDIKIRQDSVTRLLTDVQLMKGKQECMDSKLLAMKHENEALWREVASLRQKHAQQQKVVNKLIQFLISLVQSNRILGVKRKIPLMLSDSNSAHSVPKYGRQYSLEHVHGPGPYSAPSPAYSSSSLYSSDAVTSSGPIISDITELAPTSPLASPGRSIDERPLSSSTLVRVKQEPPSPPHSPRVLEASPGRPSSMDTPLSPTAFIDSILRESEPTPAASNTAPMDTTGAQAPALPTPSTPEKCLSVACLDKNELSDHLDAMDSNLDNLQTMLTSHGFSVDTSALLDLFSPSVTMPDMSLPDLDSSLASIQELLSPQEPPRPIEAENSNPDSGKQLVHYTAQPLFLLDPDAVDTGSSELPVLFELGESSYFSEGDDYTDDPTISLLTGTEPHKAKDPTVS

[13] = blockers of HIV-1 envelope-mediated cell-cell fusion – cherry-pick, dose response (AID 652057); assay type: functional, cell-based
[14] = general cell-killing toxicity readout – plate reader, dry powder samples, cytotoxicity control for PAX8 inhibitor project, dose response (AID 743021); assay type: functional, cell-based
[15] = viability loss in CEM21 cells – cell-based, CellTiter-Glo luminescence, cherry-picked, cytotoxicity control for viral fusion inhibitor project, dose response (AID 652042); assay type: functional;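 further: potency for signal decrease meaning cytotoxicity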
[16] = viability loss of HPDE-C7K cells – cell-based, fluorescence, HTS, primary screen (AID 431); assay type: functional; conditions: Homo sapiens
BJ [17] = assay: growth inhibition of engineered Ras-driven BJ cells – cell-based, alamar blue fluorescence, cherrypicked samples, dose response (AID 2631); assay type: functional; conditions: Homo sapiens;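 further: confirmatory dose-response assay in RAS-dependent BJ fibroblasts engineered with TERT, LT and ST, with cytotoxicity read by fluorescence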
[18] = viability of HCT116 lacking mutant beta-catenin – cell-based, human colon tumor, dose response (AID 1045); assay type: functional;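 further: HCT116 colon tumor cells with beta catenin knocked out; cells exposed to compound for 60 hours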
BJ [19] = assay: BJ-TERT fibroblast viability loss – cell-based, RAS-independent, luminescence, dose response (AID 1933); assay type: functional; conditions: Homo sapiens
BJ [20] = assay: BJ-TERT-LT-ST fibroblast viability loss – cell-based, RAS-independent, luminescence, dose response (AID 1935); assay type: functional; conditions: Homo sapiens;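 further: BJ fibroblasts immortalized with TERT plus LT and ST oncogenes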
[21] = blockade of melanocortin 4 receptor signaling – cell-based, plate reader, cherry pick, counter-screen for LGR2 antagonist project, dose response (AID 743444); assay type: functional;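 further: transfected HEK 293 cells stimulated with alpha-MSH peptide; potency of inhibitors of the alpha-MSH evoked signal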
[22] = viability loss in HEK293 cells – cell-based, plate reader, cherry-picked samples, cytotoxicity control, dose response (AID 743446); assay type: functional
[23] = A549 cell cytotoxicity, dose response, cytotoxicity control, plate reader, cherry-pick, antagonist series (AID 743412); assay type: functional, cell-based
[24] = blockers of bursicon-stimulated LGR2 cAMP reporter – cell-based, HEK293, CRE-luciferase reporter, cherry pick, set 2, dose response (AID 743343); assay type: functional;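 further: transfected cells were stimulated with diluted bursicon conditioned medium after compound addition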
[25] = toxicity toward HepG2 liver cells – cell-based, plate reader, cherry-pick, antagonist series, cytotoxicity control, dose response (AID 743416); assay type: functional
cells = conditions: HEK293
[26] = A2780 cell killing – plate reader, dry powder samples, cytotoxicity control, dose response (AID 743046); assay type: functional, cell-based
[27] = OVCAR-3 cell viability loss – plate reader, dry powder samples, PAX8 inhibitor project, dose response (AID 743044); assay type: functional, cell-based
[28] = OVCAR8 cell viability loss – plate reader, dry powder samples, PAX8 project, dose response (AID 743197); assay type: functional, cell-based; conditions: OVCAR-8
[29] = toxicity toward immortalized ovarian surface epithelium – cell-based, plate reader, dry powder samples, cytotoxicity control for PAX8 inhibitor project, dose response (AID 743045); assay type: functional
[30] = IGROV1 cell killing – plate reader, dry powder samples, PAX8 inhibitor project, dose response (AID 743043); assay type: functional, cell-based; conditions: IGROV-1
[31] = inhibition of Env-driven cell fusion – HIV entry, plate reader, dry powder, dose response (AID 687023); assay type: functional, cell-based
[32] = viability loss in CEM21 cells – cell-based, plate reader, dry powder, cytotoxicity control, dose response (AID 687026); assay type: functional

O=S(=O)(c1ccc2c(c1)C(=NO)c1cc(S(=O)(=O)N3CCCCC3)ccc1-2)N1CCCCC1
inconclusive: EC50 [2] 2.68 µM | EC50 (BJ [9]) 2.71 µM | EC50 (BJ [19]) 1.02 µM | EC50 (BJ [20]) 2.65 µM
active: EC50 [1] 7.79 µM | EC50 [3] 0.3 µM | EC50 [4] 0.412 µM | AC50 [5] 0.879 µM | EC50 [6] 12.3 µM | AC50 [7] 0.794 µM | AC50 [8] 0.767 µM | EC50 [10] 6.01 µM | AC50 (Paired box protein Pax-8) 0.871 µM | AC50 (HEK293) 2.99 µM | EC50 [11] 3.8 µM | EC50 [12] 0.749 µM | AC50 [13] 0.73 µM | AC50 [14] 1.5 µM | AC50 [15] 0.287 µM | EC50 [16] 0.39 µM | EC50 (BJ [17]) 2.97 µM | EC50 [18] 0.352 µM

CCCCOc1ccc(-c2cnc3ccccc3n2)cc1
inactive: AC50 [22] > 52 µM | AC50 [23] > 52 µM | AC50 [25] > 52 µM
active: AC50 [21] 6.65 µM | AC50 [24] 4.56 µM

COc1cccc(Nc2nc(C(N)Cc3ccc(F)cc3)cs2)n1 (centres undefined)
active: AC50 [21] 31.1 µM | AC50 [22] 16.8 µM | AC50 [23] 14.5 µM | AC50 [24] 28.5 µM | AC50 [25] 13.9 µM

CCN1C(=O)c2cccc3c(S(=O)(=O)N(C)C)ccc1c23
inactive: AC50 (cells) > 52 µM

CS(=O)(=O)N1CC(=O)N2[C@H](CO)[C@H](c3ccc(C#CCC4CCCC4)cc3)[C@H]2C1
active: AC50 [26] 33.1 µM | AC50 (Paired box protein Pax-8) 5.98 µM | AC50 [27] 23 µM

O=C(C[C@@H]1CC[C@@H]2[C@H](COC[C@H](O)CN2S(=O)(=O)c2ccccc2Cl)O1)N1CCC(Cc2ccccc2)CC1
active: AC50 [28] 44.9 µM | AC50 [29] 31.5 µM | AC50 (Paired box protein Pax-8) 13.3 µM | AC50 [30] 37.6 µM

C[C@H]1CN([C@@H](C)CO)C(=O)c2ccccc2-c2ccccc2CO[C@H]1CN(C)S(=O)(=O)c1ccccc1C#N
active: AC50 [31] 47 µM | AC50 [7] 3.49 µM | AC50 [13] 0.838 µM
inactive: AC50 [32] > 70 µM
